Patent US4521422A, “Aryl and heteroaryl[7-(aryl and heteroaryl)pyrazolo[1,5-a]pyrimidin-3-yl]methanones” (American Cyanamid Company, priority 1984, dated 1985)

tested on: Clonic Seizures Caused by Pentylenetetrazole in Rats; experiment: Protection against clonic seizures caused by pentylenetetrazole in rats; format: in vivo; conditions: Rattus norvegicus; dose 25.0 mg/kg, oral or i.p.; pentylenetetrazole 23 mg/kg i.v. at 30 or 60 min; read-out: % of Rats Protected
Summary of the method: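 Rats (at least 4 per group) given single or graded oral or intraperitoneal doses in starch/PEG/Polysorbate 80 vehicle. After 30 or 60 min, pentylenetetrazole 23 mg/kg i.v. was given, a dose expected to induce clonic seizures in 99% of unprotected rats. Protection from convulsions was scored.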

Row | SMILES | responders at 25 mg/kg
1 | O=C(c1ccccc1)c1cnn2c(-c3ccc(F)cc3)ccnc12 [[7-(4-fluorophenyl)pyrazolo[1,5-a]pyrimidin-3-yl]phenyl-methanone] | 100%
2 | O=C(c1ccccc1)c1cnn2c(-c3cc[n+]([O-])cc3)ccnc12 [Phenyl[7-(4-pyridinyl)pyrazolo[1,5-a]pyrimidin-3-yl]methanone, pyridine-1-oxide] | 100%
3 | O=C(c1ccccn1)c1cnn2c(-c3ccc(F)cc3)ccnc12 [[7-(4-fluorophenyl)pyrazolo[1,5-a]pyrimidin-3-yl]-2-pyridinyl-methanone] | 50%
4 | O=C(c1cccs1)c1cnn2c(-c3cccc(C(F)(F)F)c3)ccnc12 [2-thienyl[7-[3-(trifluoromethyl)phenyl]pyrazolo[1,5-a]pyrimidin-3-yl]methanone] | 100%
5 | O=C(c1ccco1)c1cnn2c(-c3ccncc3)ccnc12 [2-furanyl[7-(4-pyridinyl)pyrazolo[1,5-a]pyrimidin-3-yl]methanone] | 25%
6 | Cc1cccc(C(=O)c2cnn3c(-c4cccnc4)ccnc23)c1 [(3-methylphenyl)[7-(3-pyridinyl)pyrazolo[1,5-a]pyrimidin-3-yl]methanone] | 100%
7 | O=C(c1cccc(F)c1)c1cnn2c(-c3cccnc3)ccnc12 [(3-fluorophenyl)[7-(3-pyridinyl)pyrazolo[1,5-a]pyrimidin-3-yl]methanone] | 100%
8 | O=C(c1ccccn1)c1cnn2c(-c3cccnc3)ccnc12 [2-Pyridinyl[7-(3-pyridinyl)pyrazolo[1,5-a]pyrimidin-3-yl]methanone] | 75%
9 | Cc1cnc2c(C(=O)c3ccccc3)cnn2c1-c1ccncc1 [[6-methyl-7-(4-pyridinyl)pyrazolo[1,5-a]pyrimidin-3-yl]phenyl-methanone] | 100%
10 | O=C(c1ccc(F)cc1)c1cnn2c(-c3ccc(F)cc3)ccnc12 [(4-fluorophenyl)[7-(4-fluorophenyl)pyrazolo[1,5-a]pyrimidin-3-yl]methanone] | 75%
11 | COc1ccc(C(=O)c2cnn3c(-c4cccnc4)ccnc23)cc1OC [(3,4-dimethoxyphenyl)[7-(3-pyridinyl)pyrazolo[1,5-a]pyrimidin-3-yl]methanone] | 87%

tested on: Nonconditioned Passive Avoidance in Rats; experiment: Nonconditioned passive avoidance (conflict) test in rats; format: in vivo, rat (Wistar); set-up: key: Active: considered active if the number of shocks received by the test group is significantly higher than the control group by the Mann-Witney U test; conditions: dose 25.0 mg/kg, oral or i.p.
Procedure: Another test which has been used to assess anti-anxiety effects is a nonconditioned passive avoidance procedure described by [J. R. Vogel, B. Beer and D. E. Clody, "A Simple and Reliable Conflict Procedure for Testing Anti-Anxiety Agents", Psychopharmacologia, 21, 1-7 (1971)]. A conflict situation is induced in rats by a modification of this method.
Groups of 6 naive, Wistar strain rats, weighing 200-240 g each were deprived of water for 48 hours and food for 24 hours. The test compounds were administered in single or graded, oral or intraperitoneal doses, suspended in a 2% starch vehicle containing 0.5% v/v polyethylene glycol and one drop of polysorbate 80. Control animals received the vehicle alone. At 30 to 60 minutes each rat was placed in an individual plexiglass chamber. Water was available ad libitum from a tap located in the rear of the chamber. A 0.7 milliampere DC shocking current was established between the stainless steel grid floor and the tap. After 20 licks of non-shocked drinking, a shock was delivered for 2 seconds and then further shocks were delivered on a ratio of one shock for 2 seconds for every 20 licks. This was continued for a total of 3 minutes. The number of shocks taken by each rat during the 3 minute interval was recorded and compared to a control group. […]

Row | SMILES | Result (nonconditioned passive avoidance)
12 | O=C(c1ccccc1)c1cnn2c(-c3ccc(F)cc3)ccnc12 [[7-(4-fluorophenyl)pyrazolo[1,5-a]pyrimidin-3-yl]phenyl-methanone] | Active
13 | O=C(c1ccccc1)c1cnn2c(-c3cc[n+]([O-])cc3)ccnc12 [Phenyl[7-(4-pyridinyl)pyrazolo[1,5-a]pyrimidin-3-yl]methanone, pyridine-1-oxide] | Active
14 | O=C(c1ccc(Cl)cc1)c1cnn2c(-c3cccc(C(F)(F)F)c3)ccnc12 [(4-chlorophenyl)[7-[3-(trifluoromethyl)phenyl]pyrazolo[1,5-a]pyrimidin-3-yl]methanone] | Active
15 | O=C(c1ccccn1)c1cnn2c(-c3ccc(F)cc3)ccnc12 [[7-(4-fluorophenyl)pyrazolo[1,5-a]pyrimidin-3-yl]-2-pyridinyl-methanone] | Active
16 | O=C(c1cccs1)c1cnn2c(-c3cccc(C(F)(F)F)c3)ccnc12 [2-thienyl[7-[3-(trifluoromethyl)phenyl]pyrazolo[1,5-a]pyrimidin-3-yl]methanone] | Active
17 | O=C(c1ccco1)c1cnn2c(-c3ccncc3)ccnc12 [2-furanyl[7-(4-pyridinyl)pyrazolo[1,5-a]pyrimidin-3-yl]methanone] | Active
18 | O=C(c1cccc(C(F)(F)F)c1)c1cnn2c(-c3cccnc3)ccnc12 [[7-(3-pyridinyl)pyrazolo[1,5-a]pyrimidin-3-yl][3-(trifluoromethyl)phenyl]methanone] | Active
19 | Cc1cccc(C(=O)c2cnn3c(-c4cccnc4)ccnc23)c1 [(3-methylphenyl)[7-(3-pyridinyl)pyrazolo[1,5-a]pyrimidin-3-yl]methanone] | Active
20 | O=C(c1cccc(F)c1)c1cnn2c(-c3cccnc3)ccnc12 [(3-fluorophenyl)[7-(3-pyridinyl)pyrazolo[1,5-a]pyrimidin-3-yl]methanone] | Active
21 | O=C(c1ccncc1)c1cnn2c(-c3ccncc3)ccnc12 [4-pyridinyl[7-(4-pyridinyl)pyrazolo[1,5-a]pyrimidin-3-yl]methanone] | Active
22 | O=C(c1ccccn1)c1cnn2c(-c3cccnc3)ccnc12 [2-Pyridinyl[7-(3-pyridinyl)pyrazolo[1,5-a]pyrimidin-3-yl]methanone] | Active
23 | Cc1cnc2c(C(=O)c3ccccc3)cnn2c1-c1ccncc1 [[6-methyl-7-(4-pyridinyl)pyrazolo[1,5-a]pyrimidin-3-yl]phenyl-methanone] | Active
24 | O=C(c1ccc(F)cc1)c1cnn2c(-c3ccc(F)cc3)ccnc12 [(4-fluorophenyl)[7-(4-fluorophenyl)pyrazolo[1,5-a]pyrimidin-3-yl]methanone] | Active
25 | COc1ccc(C(=O)c2cnn3c(-c4cccnc4)ccnc23)cc1OC [(3,4-dimethoxyphenyl)[7-(3-pyridinyl)pyrazolo[1,5-a]pyrimidin-3-yl]methanone] | Active

tested on: Brain-Specific Receptors of Rats; experiment: Inhibition of the binding of 3H-benzodiazepine to brain-specific receptors of rats; set-up: species or system rat (Wistar); conditions: 3H-diazepam 1.5 nM or 3H-flunitrazepam 1.0 nM; rat cortex P2 fraction; test concentration not given

Row | SMILES | % Inhibition
26 | O=C(c1ccccc1)c1cnn2c(-c3ccc(F)cc3)ccnc12 [[7-(4-fluorophenyl)pyrazolo[1,5-a]pyrimidin-3-yl]phenyl-methanone] | 18%
27 | O=C(c1ccccc1)c1cnn2c(-c3cc[n+]([O-])cc3)ccnc12 [Phenyl[7-(4-pyridinyl)pyrazolo[1,5-a]pyrimidin-3-yl]methanone, pyridine-1-oxide] | 39%
28 | O=C(c1ccc(Cl)cc1)c1cnn2c(-c3cccc(C(F)(F)F)c3)ccnc12 [(4-chlorophenyl)[7-[3-(trifluoromethyl)phenyl]pyrazolo[1,5-a]pyrimidin-3-yl]methanone] | 81%
29 | O=C(c1ccccn1)c1cnn2c(-c3ccc(F)cc3)ccnc12 [[7-(4-fluorophenyl)pyrazolo[1,5-a]pyrimidin-3-yl]-2-pyridinyl-methanone] | 64%
30 | O=C(c1cccs1)c1cnn2c(-c3cccc(C(F)(F)F)c3)ccnc12 [2-thienyl[7-[3-(trifluoromethyl)phenyl]pyrazolo[1,5-a]pyrimidin-3-yl]methanone] | 99%
31 | O=C(c1ccco1)c1cnn2c(-c3ccncc3)ccnc12 [2-furanyl[7-(4-pyridinyl)pyrazolo[1,5-a]pyrimidin-3-yl]methanone] | 19%
32 | O=C(c1cccc(C(F)(F)F)c1)c1cnn2c(-c3cccnc3)ccnc12 [[7-(3-pyridinyl)pyrazolo[1,5-a]pyrimidin-3-yl][3-(trifluoromethyl)phenyl]methanone] | 38%
33 | Cc1cccc(C(=O)c2cnn3c(-c4cccnc4)ccnc23)c1 [(3-methylphenyl)[7-(3-pyridinyl)pyrazolo[1,5-a]pyrimidin-3-yl]methanone] | 70%
34 | O=C(c1cccc(F)c1)c1cnn2c(-c3cccnc3)ccnc12 [(3-fluorophenyl)[7-(3-pyridinyl)pyrazolo[1,5-a]pyrimidin-3-yl]methanone] | 20%
35 | O=C(c1ccncc1)c1cnn2c(-c3ccncc3)ccnc12 [4-pyridinyl[7-(4-pyridinyl)pyrazolo[1,5-a]pyrimidin-3-yl]methanone] | 11%
36 | O=C(c1ccccn1)c1cnn2c(-c3cccnc3)ccnc12 [2-Pyridinyl[7-(3-pyridinyl)pyrazolo[1,5-a]pyrimidin-3-yl]methanone] | 98%
37 | Cc1cnc2c(C(=O)c3ccccc3)cnn2c1-c1ccncc1 [[6-methyl-7-(4-pyridinyl)pyrazolo[1,5-a]pyrimidin-3-yl]phenyl-methanone] | 56%
38 | O=C(c1ccc(F)cc1)c1cnn2c(-c3ccc(F)cc3)ccnc12 [(4-fluorophenyl)[7-(4-fluorophenyl)pyrazolo[1,5-a]pyrimidin-3-yl]methanone] | 34%
39 | COc1ccc(C(=O)c2cnn3c(-c4cccnc4)ccnc23)cc1OC [(3,4-dimethoxyphenyl)[7-(3-pyridinyl)pyrazolo[1,5-a]pyrimidin-3-yl]methanone] | 75%
